Key:
Assay in all cases: relative viability (nuclei count vs DMSO), 5 days (fraction); higher = more cells survive
201T = tested on: 201T
How it was run: (§1)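 A single step with final 0.05% Triton X-100, 1% formaldehyde and 1 ug/ml Hoechst fixed the cells and stained nuclei 5 days after treatment. Lung cancer cell lines in 1536-well plates had been treated by pin tool the day after seeding with one drug alone or a fixed anchor-drug dose plus five library-drug doses (not always all listed) in √10 steps, and nuclei were counted on 4× images. Relative viability is the ratio of nuclei in treated wells to nuclei in vehicle wells, taken as the median of duplicate plates.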

A-427 = tested on: A-427
How it was run: as §1

COR-L23 = tested on: COR-L23
How it was run: as §1

H3255 = tested on: H3255
How it was run: as §1

LC-2-ad = tested on: LC-2-ad
How it was run: as §1

LCLC-103H = tested on: LCLC-103H
How it was run: as §1

LCLC-97TM1 = tested on: LCLC-97TM1
How it was run: as §1

LK-2 = tested on: LK-2
How it was run: as §1

LU99A = tested on: LU99A
How it was run: as §1

NCI-H1563 = tested on: NCI-H1563
How it was run: as §1

NCI-H1650 = tested on: NCI-H1650
How it was run: as §1

NCI-H1793 = tested on: NCI-H1793
How it was run: as §1

NCI-H2228 = tested on: NCI-H2228
How it was run: as §1

NCI-H2347 = tested on: NCI-H2347
How it was run: as §1

NCI-H23 = tested on: NCI-H23
How it was run: as §1

NCI-H460 = tested on: NCI-H460
How it was run: as §1

NCI-H596 = tested on: NCI-H596
How it was run: as §1

NCI-H727 = tested on: NCI-H727
How it was run: as §1

PC-14 = tested on: PC-14
How it was run: as §1

PC-3 [JPC-3] = tested on: PC-3 [JPC-3]
How it was run: as §1

SW 1573 = tested on: SW 1573
How it was run: as §1

SW 900 = tested on: SW 900
How it was run: as §1

O=c1cc(N2CCOCC2)oc2c(-c3cccc4c3sc3ccccc34)cccc12 + COc1cc2c(Oc3ccc(NC(=O)C4(C(=O)Nc5ccc(F)cc5)CC4)cc3F)ccnc2cc1OCCCN1CCOCC1 [Foretinib] (partner 0.25 µM)
relative viability (201T; first compound 0.01 µM): 1.1 | relative viability (201T; first compound 0.03162 µM): 1.13 | relative viability (201T; first compound 0.1 µM): 1.1 | relative viability (201T; first compound 0.3162 µM): 0.963 | relative viability (201T; first compound 1 µM): 1.06 | relative viability (A-427; first compound 0.01 µM): 1.04 | relative viability (A-427; first compound 0.03162 µM): 1.2 | relative viability (A-427; first compound 0.1 µM): 0.972 | relative viability (A-427; first compound 0.3162 µM): 1.01 | relative viability (A-427; first compound 1 µM): 1 | relative viability (COR-L23; first compound 0.01 µM): 1.03 | relative viability (COR-L23; first compound 0.03162 µM): 0.996 | relative viability (COR-L23; first compound 0.1 µM): 0.954 | relative viability (COR-L23; first compound 0.3162 µM): 0.923 | relative viability (COR-L23; first compound 1 µM): 1.06 | relative viability (H3255; first compound 0.01 µM): 0.82 | relative viability (H3255; first compound 0.03162 µM): 0.952 | relative viability (H3255; first compound 0.1 µM): 0.826 | relative viability (H3255; first compound 0.3162 µM): 0.83 | relative viability (H3255; first compound 1 µM): 0.943 | relative viability (LC-2-ad; first compound 0.01 µM): 0.89 | relative viability (LC-2-ad; first compound 0.03162 µM): 1.03 | relative viability (LC-2-ad; first compound 0.1 µM): 0.921 | relative viability (LC-2-ad; first compound 0.3162 µM): 0.877 | relative viability (LC-2-ad; first compound 1 µM): 0.795 | relative viability (LCLC-103H; first compound 0.01 µM): 0.685 | relative viability (LCLC-103H; first compound 0.03162 µM): 0.786 | relative viability (LCLC-103H; first compound 0.1 µM): 0.806 | relative viability (LCLC-103H; first compound 0.3162 µM): 0.824 | relative viability (LCLC-103H; first compound 1 µM): 0.746 | relative viability (LCLC-97TM1; first compound 0.01 µM): 0.905 | relative viability (LCLC-97TM1; first compound 0.03162 µM): 0.926 | relative viability (LCLC-97TM1; first compound 0.1 µM): 0.937 | relative viability (LCLC-97TM1; first compound 0.3162 µM): 0.897 | relative viability (LCLC-97TM1; first compound 1 µM): 0.92 | relative viability (LK-2; first compound 0.01 µM): 1.17 | relative viability (LK-2; first compound 0.03162 µM): 1.16 | relative viability (LK-2; first compound 0.1 µM): 1.53 | relative viability (LK-2; first compound 0.3162 µM): 0.958 | relative viability (LK-2; first compound 1 µM): 0.951 | relative viability (LU99A; first compound 0.01 µM): 0.937 | relative viability (LU99A; first compound 0.03162 µM): 0.739 | relative viability (LU99A; first compound 0.1 µM): 0.908 | relative viability (LU99A; first compound 0.3162 µM): 0.806 | relative viability (LU99A; first compound 1 µM): 0.777 | relative viability (NCI-H1563; first compound 0.01 µM): 0.913 | relative viability (NCI-H1563; first compound 0.03162 µM): 0.833 | relative viability (NCI-H1563; first compound 0.1 µM): 0.895 | relative viability (NCI-H1563; first compound 0.3162 µM): 0.901 | relative viability (NCI-H1563; first compound 1 µM): 0.888 | relative viability (NCI-H1650; first compound 0.01 µM): 1.09 | relative viability (NCI-H1650; first compound 0.03162 µM): 1.09 | relative viability (NCI-H1650; first compound 0.1 µM): 1.04 | relative viability (NCI-H1650; first compound 0.3162 µM): 1.21 | relative viability (NCI-H1650; first compound 1 µM): 1.19 | relative viability (NCI-H1793; first compound 0.01 µM): 0.594 | relative viability (NCI-H1793; first compound 0.1 µM): 0.568 | relative viability (NCI-H1793; first compound 0.3162 µM): 0.685 | relative viability (NCI-H1793; first compound 1 µM): 0.486 | relative viability (NCI-H2228; first compound 0.01 µM): 0.864 | relative viability (NCI-H2228; first compound 0.03162 µM): 1.08 | relative viability (NCI-H2228; first compound 0.1 µM): 0.981 | relative viability (NCI-H2228; first compound 0.3162 µM): 0.89 | relative viability (NCI-H2228; first compound 1 µM): 0.9 | relative viability (NCI-H2347; first compound 0.01 µM): 0.963 | relative viability (NCI-H2347; first compound 0.03162 µM): 0.761 | relative viability (NCI-H2347; first compound 0.1 µM): 0.675 | relative viability (NCI-H2347; first compound 0.3162 µM): 0.855 | relative viability (NCI-H2347; first compound 1 µM): 1.05 | relative viability (NCI-H23; first compound 0.01 µM): 1.02 | relative viability (NCI-H23; first compound 0.03162 µM): 1.01 | relative viability (NCI-H23; first compound 0.3162 µM): 1.06 | relative viability (NCI-H23; first compound 1 µM): 0.919 | relative viability (NCI-H460; first compound 0.01 µM): 0.981 | relative viability (NCI-H460; first compound 0.03162 µM): 1.03 | relative viability (NCI-H460; first compound 0.1 µM): 0.987 | relative viability (NCI-H460; first compound 0.3162 µM): 0.985 | relative viability (NCI-H460; first compound 1 µM): 1.04 | relative viability (NCI-H596; first compound 0.01 µM): 0.838 | relative viability (NCI-H596; first compound 0.03162 µM): 0.946 | relative viability (NCI-H596; first compound 0.1 µM): 0.821 | relative viability (NCI-H596; first compound 0.3162 µM): 0.96 | relative viability (NCI-H596; first compound 1 µM): 0.918 | relative viability (NCI-H727; first compound 0.01 µM): 1.05 | relative viability (NCI-H727; first compound 0.03162 µM): 0.822 | relative viability (NCI-H727; first compound 0.1 µM): 0.908 | relative viability (NCI-H727; first compound 0.3162 µM): 1 | relative viability (NCI-H727; first compound 1 µM): 0.865 | relative viability (PC-14; first compound 0.01 µM): 0.957 | relative viability (PC-14; first compound 0.03162 µM): 0.965 | relative viability (PC-14; first compound 0.1 µM): 0.994 | relative viability (PC-14; first compound 0.3162 µM): 0.987 | relative viability (PC-14; first compound 1 µM): 0.948 | relative viability (PC-3 [JPC-3]; first compound 0.01 µM): 1.01 | relative viability (PC-3 [JPC-3]; first compound 0.03162 µM): 1.08 | relative viability (PC-3 [JPC-3]; first compound 0.1 µM): 1.05 | relative viability (PC-3 [JPC-3]; first compound 0.3162 µM): 1.01 | relative viability (PC-3 [JPC-3]; first compound 1 µM): 1.06 | relative viability (SW 1573; first compound 0.01 µM): 0.537 | relative viability (SW 1573; first compound 0.03162 µM): 0.982 | relative viability (SW 1573; first compound 0.1 µM): 0.87 | relative viability (SW 1573; first compound 0.3162 µM): 0.87 | relative viability (SW 1573; first compound 1 µM): 1.07 | relative viability (SW 900; first compound 0.01 µM): 0.859 | relative viability (SW 900; first compound 0.03162 µM): 0.888 | relative viability (SW 900; first compound 0.1 µM): 0.789 | relative viability (SW 900; first compound 0.3162 µM): 0.798 | relative viability (SW 900; first compound 1 µM): 0.818

— the supplement of paper PMC10307832
